Laboratory results published in patent publication EP0079397A1, “Asymmetrically substituted (2,4,6-triodoanilides) of dicarboxylic acids, their preparation and X-ray contrast agents containing them” (SCHERING AKTIENGESELLSCHAFT, priority 1981, dated 1983).
Like-named read-outs stand apart in the source and are kept apart here.

Experiments:
[1] = Partition coefficient butanol/water; type: physicochemical; settings: meglumine salts
Ratte [2] = assay: Neural tolerance after intracisternal injection in rats; type: in vivo; settings: injection into Cisterna suboccipitalis, 200-250 g rats, diluted with 3% mannitol solution
Method: (§1) • 1) Injektion der Kontrastmittel als Megluminsalzlösungen mit 180 mg Jod/ml mit einer Geschwindigkeit von 0,8 ml/min bei 100 g schweren männlichen und weiblichen Ratten. • 2) Männlichen und weiblichen Ratten im Gewicht von etwa 100 g wurden in leichter Äthernarkose je 0,04 ml unterschiedlich konzentrierter Kontrastmittellösungen nach der Methode von Valzelli durch eine natürliche Knochenspalte des Schädels zwischen Joch- und Hinterhauptbein intrazerebral injiziert. Die Injektion erfolgte mit einer Hamilton Spritze 710 N, bei der die Einstichtiefe auf 10 mm begrenzt ist. Je Präparat wurden mindestens 4 Dosierungen an 10 Tieren untersucht. Als Wirkungskriterien wurden über den Zeitraum von 24 Stunden Exzitationszustände, schwere Haltungsanomalien, Koma und Tod bewertet. • 3) Bei grundsätzlich gleicher Versuchsanlage wie unter 2) beschrieben, wurden 200-250 g schweren Ratten die Kontrastmittel in die Cisterna suboccipitalis injiziert. Die Kontrastmittel wurden mit 3%iger Mannit-lösung verdünnt, um den osmotischen Druck anzupassen. • 4) Ratten (ca. 150 g Körpergewicht) wurde in Ithernarkose ein Polyäthylenschlauch in den Ductus choledochus eingebunden. […]

Ratte [3] = assay: Neural tolerance after pericerebral injection in rats (method of Valzelli); type: in vivo; settings: 0,04 ml injected, ca. 100 g rats, 24 h observation: excitation, posture anomalies, coma, death
Method: as §1

Ratte [4] = assay: Acute intravenous toxicity (DL50) in rats; type: in vivo; settings: meglumine salt solutions 180 mg Jod/ml, 0,8 ml/min, 100 g rats
Method: as §1

in vivo [5] = assay: in vivo; design: species or system Ratte; settings: rat, iv, 60 mg/kg
Method: • 1) Injektion der Kontrastmittel als Megluminsalzlösungen mit 180 mg Jod/ml mit einer Geschwindigkeit von 0,8 ml/min bei 100 g schweren männlichen und weiblichen Ratten. • 2) Männlichen und weiblichen Ratten im Gewicht von etwa 100 g wurden in leichter Äthernarkose je 0,04 ml unterschiedlich konzentrierter Kontrastmittellösungen nach der Methode von Valzelli durch eine natürliche Knochenspalte des Schädels zwischen Joch- und Hinterhauptbein intrazerebral injiziert. Die Injektion erfolgte mit einer Hamilton Spritze 710 N, bei der die Einstichtiefe auf 10 mm begrenzt ist. Je Präparat wurden mindestens 4 Dosierungen an 10 Tieren untersucht. Als Wirkungskriterien wurden über den Zeitraum von 24 Stunden Exzitationszustände, schwere Haltungsanomalien, Koma und Tod bewertet. • 3) Bei grundsätzlich gleicher Versuchsanlage wie unter 2) beschrieben, wurden 200-250 g schweren Ratten die Kontrastmittel in die Cisterna suboccipitalis injiziert. Die Kontrastmittel wurden mit 3%iger Mannit-lösung verdünnt, um den osmotischen Druck anzupassen. • 4) Ratten (ca. 150 g Körpergewicht) wurde in Ithernarkose ein Polyäthylenschlauch in den Ductus choledochus eingebunden. Etwa eine Stunde nachdem die Tiere aus der Narkose erwacht waren, wurden die Kontrastmittel in einer Dosis von 60 mg Jod/kg intravenös injiziert und die Galle bis 3 Stunden nach der Injektion fraktioniert gesammelt. • 5) Intakten Ratten von etwa 100 g Körpergewicht wurde 20 Minuten vor der Verabreichung des Kontrastmittels 5 ml Wasser und dann in 1-stündigem Abstand nach der Verabreichung der Prüfsubstanzen 3 mal je 2 ml Wasser oral verabreicht. bis 3 Stunden nach der i.v. Injektion des Kontrastmittels in einer Dosis von 60 mg Jod/kg wurde der Harn quantitativ gesammelt. • 4), 5) die Messung des Kontrastmittels erfolgte entweder aufgrund der ^131J-Aktivität in den Proben oder bei nicht radioaktiv markierten Kontrastmitteln mit Hilfe der Röntgenfluoreszenz des Jods.

[6] = Protein binding to human serum; type: in vitro ADME; settings: at ca. 1,2 mg Jod/ml, meglumine salts, read-out: Proteinbindung an Humanserum (converted)
Leber des Hundes = assay: Maximum enrichment in dog liver by computed tomography; settings: 360 mg Jod/kg i.v.; for maximale Anreicherung in der Leber des Hundes: meglumine salt solutions 180 mg Jod/ml, CT up to 90 min
Method: (§2) Die Werte wurden an gesunden weiblichen und männlichen Beagle-Hunden (Züchter: Schering) im Gewicht von 9-14 kg ermittelt.
(§3) Die Megluminsalzlösungen enthielten 180 mg Jod/ml.
(§4) Die Scanzeit betrug 20 Sekunden, die Röhrenspannung 120 kV. Bei einer Bildmatrix von 320 x 320 Elementen betrug die Standardabweichung vom Mittelwert eines normierten Wasserphantoms 1,6 % (d.h. + 8 EU = EMI-Units.
(§5) Die Auswertung der Computertomogramme stets des gleichen Leberareals erfolgte mit Hilfe der Auswerteeinheit "IVC" der Fa. EMI.

in vivo [7] = settings: dog, iv
Method: as §2, §3, §4, §5

Leber [8] = settings: dog; cited from earlier work
Leber [9] = settings: man; cited from earlier work

| SMILES | Verteilungskoeffizient Butanol/Wasser pH 7.4 [1] | Ratte, intrazisternal, ED50 (Ratte [2]) | Ratte, pericerebral, ED50 (Ratte [3]) | DL50, i.v., Ratte (Ratte [4]) | dose excreted at 0.5 h (in vivo [5]) [%] | dose excreted at 3 h (in vivo [5]) [%] | fraction unbound [6] | maximale Anreicherung in der Leber des Hundes (Leber des Hundes) | Tmax (in vivo [7]) [h] | Konzentration in der Leber (Leber [8]) | maximale Anreicherung in der Leber des Hundes, min. p. appl. (Leber des Hundes; time of maximum enrichment) [min. p. appl.] | Konzentration in der Leber (Leber [9]) |
| --- | --- | --- | --- | --- | --- | --- | --- | --- | --- | --- | --- | --- |
| O=C(CCCCC(=O)Nc1c(I)cc(I)c(C(=O)O)c1I)Nc1c(I)cc(I)c(C(=O)O)c1I [B, Iodipamid] | 0,278 ± 0,008 | 1,07 (0,54-1,83) mg Jod/kg | 6,35 (5,11-7,44) mg Jod/kg | 2,6 g Jod/kg | 59.4 | 91.5 | 0.23 | – | – | – | – | – |
| CNC(=O)c1c(I)c(NC(=O)CCCCC(=O)Nc2c(I)cc(I)c(C(=O)O)c2I)c(I)c(C(=O)O)c1I [Verbindung A, Hexandisäure-1-(3-carboxy-2,4,6-trijod-anilid)-6-(3-carboxy-5-N-methylcarbamoyl-2,4,6-trijodanilid)] | 0,083 ± 0,001 | 15,6 (11,5-21,1) mg Jod/kg | 17,1 (11,8-23,6) mg Jod/kg | 5,5 g Jod/kg | 61.3 | 85.9 | 0.57 | – | – | – | – | – |
| CNC(=O)c1c(I)c(NC(=O)COCC(=O)N(C)c2c(I)cc(I)c(C(=O)O)c2I)c(I)c(C(=O)O)c1I [E, 3-Oxapentan-disäure-l-(3-carboxy-2,4,6-trijod-N-methylanilid)-5-(3-carboxy-5N-methylcarbamoyl-2,4,6-trijodanilid)] | – | – | – | – | – | – | – | 42,1 EMI-Units | 1.5 | – | – | – |
| CNC(=O)c1c(I)c(NC(=O)CCCCCCCCC(=O)Nc2c(I)c(C(=O)O)c(I)c(C(=O)NC)c2I)c(I)c(C(=O)O)c1I [D, Iosefamsäure] | – | – | – | – | – | – | – | 22,8 EMI-Units | – | noch ausreichende | 80 | nicht mehr genügende |
